Data on four molecules can be found in PMC7096432, “Transport and kinase activities of CbrA of Pseudomonas putida KT2440” (Scientific Reports, 2020).

For one data set, the target named is T1, CbrAΔSLC5 (Pseudomonas putida, UniProt Q88DX3).
T1 construct: gene PP_4695; cytoplasmic domains, residues 614-992, C-terminal 12His tag, 44 kDa predicted, E. coli C41, Ni-NTA purified
T1 sequence (Q88DX3 614-991): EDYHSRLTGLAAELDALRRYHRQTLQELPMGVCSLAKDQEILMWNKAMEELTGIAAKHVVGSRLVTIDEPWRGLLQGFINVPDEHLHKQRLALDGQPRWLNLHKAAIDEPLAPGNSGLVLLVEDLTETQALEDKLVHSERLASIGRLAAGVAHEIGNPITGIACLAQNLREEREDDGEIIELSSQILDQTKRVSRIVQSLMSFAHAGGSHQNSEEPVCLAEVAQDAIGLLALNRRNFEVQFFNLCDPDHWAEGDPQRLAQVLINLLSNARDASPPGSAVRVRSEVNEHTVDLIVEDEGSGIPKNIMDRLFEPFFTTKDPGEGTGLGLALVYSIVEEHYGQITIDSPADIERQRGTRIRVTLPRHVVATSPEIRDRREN
Nature of the data set: autophosphorylation, SDS-PAGE. It is filed as biochemical. The settings on record: 50 mM Tris-HCl pH 7.5, 10 mM MgCl2, 360 mM KCl, 30 °C; labelled compound.

Data set [1] addresses T2, PAS domain of CbrA (Pseudomonas putida, UniProt Q88DX3).
T2 construct: gene PP_4695; PAS domain, residues 614-745, C-terminal 12His tag, E. coli BL21 / C43, Ni-NTA purified
T2 sequence (Q88DX3 614-745): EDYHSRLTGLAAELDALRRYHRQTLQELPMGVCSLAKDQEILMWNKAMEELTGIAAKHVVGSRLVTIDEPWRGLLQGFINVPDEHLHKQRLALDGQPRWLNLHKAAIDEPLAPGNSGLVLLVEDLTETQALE
Description: thermal shift, nanoDSF. It is filed as binding. The settings on record: read-out: dTm at 1 mM. In general terms: DSF heats the sample and reads unfolding from a dye or from intrinsic fluorescence.

A further data set has as its target T3, CbrA (Pseudomonas putida, UniProt Q88DX3).
T3 construct: gene PP_4695; full length, 109 kDa predicted
T3 sequence (Q88DX3 1-991): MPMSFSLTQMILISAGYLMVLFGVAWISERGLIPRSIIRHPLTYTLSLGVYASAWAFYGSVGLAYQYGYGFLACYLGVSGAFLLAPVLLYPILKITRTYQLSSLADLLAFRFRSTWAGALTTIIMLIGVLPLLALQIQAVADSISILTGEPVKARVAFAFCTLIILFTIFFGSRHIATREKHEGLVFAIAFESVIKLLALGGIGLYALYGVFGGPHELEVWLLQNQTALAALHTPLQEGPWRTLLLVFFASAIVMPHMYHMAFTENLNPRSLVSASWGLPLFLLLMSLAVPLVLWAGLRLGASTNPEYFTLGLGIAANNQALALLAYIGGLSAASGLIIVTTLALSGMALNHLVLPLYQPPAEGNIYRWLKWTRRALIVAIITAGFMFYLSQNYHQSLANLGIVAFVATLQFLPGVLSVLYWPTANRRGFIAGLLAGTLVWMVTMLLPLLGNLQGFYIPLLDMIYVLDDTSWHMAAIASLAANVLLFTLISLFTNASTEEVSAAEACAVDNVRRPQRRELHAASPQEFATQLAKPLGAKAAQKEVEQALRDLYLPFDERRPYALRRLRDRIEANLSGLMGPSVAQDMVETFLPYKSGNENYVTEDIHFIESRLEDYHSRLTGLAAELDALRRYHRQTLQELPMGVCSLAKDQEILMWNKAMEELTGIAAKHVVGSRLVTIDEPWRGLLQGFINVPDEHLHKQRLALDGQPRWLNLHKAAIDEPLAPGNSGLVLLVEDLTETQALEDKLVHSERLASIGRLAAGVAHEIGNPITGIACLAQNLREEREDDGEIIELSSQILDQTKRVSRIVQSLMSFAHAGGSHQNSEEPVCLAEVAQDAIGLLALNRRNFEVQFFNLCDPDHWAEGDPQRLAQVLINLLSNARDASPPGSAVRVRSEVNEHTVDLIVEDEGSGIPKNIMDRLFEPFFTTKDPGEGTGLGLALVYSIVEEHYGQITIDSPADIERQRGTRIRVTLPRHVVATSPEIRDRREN
Nature of the data set: DRaCALA, E. coli C43 membrane vesicles. In kind it is binding. The conditions noted are these: 1.35 µM ligand, 100 mM KPi pH 7.5, 25 °C; labelled compound.

The target of data set [2] is T2, PAS domain of CbrA. Description: thermal shift titration, nanoDSF. It is filed as binding.
A further data set deals with T4, SLC5 domain of CbrA (Pseudomonas putida, UniProt Q88DX3).
T4 construct: gene PP_4695; SLC5 transporter domain, residues 3-544
T4 sequence (Q88DX3 3-544): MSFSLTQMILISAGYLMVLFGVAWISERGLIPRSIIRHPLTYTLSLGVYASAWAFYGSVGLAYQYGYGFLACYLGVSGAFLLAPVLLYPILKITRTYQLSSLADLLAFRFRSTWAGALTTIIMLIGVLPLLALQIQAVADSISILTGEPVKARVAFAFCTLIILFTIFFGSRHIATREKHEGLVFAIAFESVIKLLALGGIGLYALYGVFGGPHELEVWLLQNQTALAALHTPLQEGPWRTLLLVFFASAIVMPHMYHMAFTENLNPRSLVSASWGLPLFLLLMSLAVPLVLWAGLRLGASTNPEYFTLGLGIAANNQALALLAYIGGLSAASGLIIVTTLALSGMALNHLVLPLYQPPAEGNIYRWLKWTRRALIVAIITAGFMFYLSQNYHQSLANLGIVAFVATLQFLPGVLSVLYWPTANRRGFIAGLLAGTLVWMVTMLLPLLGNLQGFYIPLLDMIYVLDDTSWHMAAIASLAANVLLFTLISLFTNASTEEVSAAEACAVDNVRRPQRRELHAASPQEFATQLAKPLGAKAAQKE
Nature of the data set: DRaCALA, E. coli C43 membrane vesicles. In kind it is binding. The conditions noted are these: 1.35 µM ligand, 100 mM KPi pH 7.5, 25 °C; labelled compound.

Substrate in data set [3]: N[C@@H](Cc1c[nH]cn1)C(=O)O
Nature of the data set: 3H-L-histidine uptake into P. putida LW1 cells. It is filed as cell-based, Pseudomonas putida. The settings on record: transport, 100 mM Tris/MES pH 6.0, 25 °C, energized with 10 mM D-lactate, background subtracted, labelled compound.

What is called Kd is the constant that tells how readily two partners part at equilibrium. In general, Km refers to the concentration of substrate that gives half-maximal velocity.

Turning to `Nc1ncnc2c1ncn2[C@@H]1O[C@H](COP(=O)(O)OP(=O)(O)OP(=O)(O)O)[C@@H](O)[C@H]1O` [γ-32P-ATP], on CbrAΔSLC5, the “autophosphorylation, 32P SDS-PAGE” value is “catalyzed both autophosphorylation and transfer of the phosphoryl group to CbrB”.
For `N[C@@H](Cc1cnc[nH]1)C(=O)O` [L-histidine], the ΔTm at 1000 µM at PAS domain of CbrA [1] was 0.73 ± 0.13 °C. Moreover, the bound fraction result was “evidence for binding of ^3H-L-histidine to CbrA and the SLC5 domain” at CbrA; “evidence for binding of ^3H-L-histidine to CbrA and the SLC5 domain” at SLC5 domain of CbrA. Besides, the dissociation constant (Kd) at PAS domain of CbrA [2] was 43 ± 13 µM.

B1: CbrA (Pseudomonas putida KT2440) (protein)
chain: T3 sequence (Q88DX3 1-991)
notes: full length, 109 kDa predicted
B1: in data set [3], the Km is reported as 0.7 ± 0.2 µM.

B2: SLC5 domain of CbrA (Pseudomonas putida KT2440) (protein)
chain: T4 sequence (Q88DX3 3-544)
notes: SLC5 transporter domain, residues 3-544
In the case of B2, the Km in data set [3] is 0.58 ± 0.18 µM.
